Reference: paper PMC5725799, “Comparative binding properties of the tau PET tracers THK5117, THK5351, PBB3, and T807 in postmortem Alzheimer brains” (Alzheimer's Research & Therapy, 2017)

Test system: tau
Assay: ^11C-PBB3 autoradiography and competition on large frozen AD brain sections
Type: binding, human
Design: NSP Binding: unit not given here
Method: Adjacent sections were used for autoradiography with ^11C-THK5351, ^11C-PBB3, and ^18F-T807. The frozen sections were allowed to reach room temperature, incubated for 30 minutes at room temperature with ^11C-THK5351 (0.4–0.56 nM; […]; specific activity 442–794 GBq/μmol) or for 55 minutes at room temperature with ^18F-T807 (0.04 nM; specific activity 281 GBq/μmol). We used 10 μM unlabeled THK5351, 10 μM unlabeled PBB3, and 10 μM unlabeled T807 to determine the extent of nonspecific binding for each tracer. The sections were rinsed three times for 5 minutes each with cold binding buffer, followed by a quick dip in cold distilled water. The sections were dried and exposed for 1 h (for ^11C-THK5351 and ^11C-PBB3) or for 3 h (^18 F-T807) on a phosphor imaging plate and then read using the BAS-2500 phosphor imager.
For all the autoradiography studies, the regions of interest were drawn manually on the autoradiogram using multigauge software and were used for the semiquantitative analyses. Photostimulated luminescence per square millimeter (PSL/mm^2) was transformed to picomoles per cubic millimeter using a transformation factor that took into account the resolution of the image, the pixel value for the concentration of ligand, and the thickness of the sections: (PSL/mm^2 value)/([pixel value per pmol] × [(resolution/1000)^2] × [cryosection thickness]/1000).

[1] = AD1, Basal ganglia, vs Unlabelled PBB3
[2] = AD1, Basal ganglia, vs Unlabelled T807
[3] = AD1, Frontal cortex, vs Unlabelled PBB3
[4] = AD1, Frontal cortex, vs Unlabelled T807
[5] = AD1, Frontal cortex, vs Unlabelled THK5351
[6] = AD1, Insula, vs Unlabelled PBB3
[7] = AD1, Insula, vs Unlabelled T807
[8] = AD1, Temporal cortex, vs Unlabelled PBB3
[9] = AD1, Temporal cortex, vs Unlabelled T807
[10] = AD1, Temporal cortex, vs Unlabelled THK5351
[11] = AD2, Basal ganglia, vs Unlabelled PBB3
[12] = AD2, Basal ganglia, vs Unlabelled T807
[13] = AD2, Basal ganglia, vs Unlabelled THK5351
[14] = AD2, Frontal cortex, vs Unlabelled PBB3
[15] = AD2, Frontal cortex, vs Unlabelled T807
[16] = AD2, Frontal cortex, vs Unlabelled THK5351
[17] = AD2, Insula, vs Unlabelled PBB3
[18] = AD2, Insula, vs Unlabelled T807
[19] = AD2, Insula, vs Unlabelled THK5351
[20] = AD2, Temporal cortex, vs Unlabelled PBB3
[21] = AD2, Temporal cortex, vs Unlabelled T807
[22] = AD2, Temporal cortex, vs Unlabelled THK5351
[23] = AD3, Basal ganglia, vs Unlabelled PBB3
[24] = AD3, Basal ganglia, vs Unlabelled T807
[25] = AD3, Basal ganglia, vs Unlabelled THK5351
[26] = AD3, Frontal cortex, vs Unlabelled PBB3
[27] = AD3, Frontal cortex, vs Unlabelled T807
[28] = AD3, Frontal cortex, vs Unlabelled THK5351
[29] = AD3, Insula, vs Unlabelled PBB3
[30] = AD3, Insula, vs Unlabelled T807
[31] = AD3, Insula, vs Unlabelled THK5351
[32] = AD3, Temporal cortex, vs Unlabelled PBB3
[33] = AD3, Temporal cortex, vs Unlabelled T807
[34] = AD3, Temporal cortex, vs Unlabelled THK5351

Structure (SMILES): [11CH3]Nc1ccc(/C=C/C=C/c2nc3ccc(O)cc3s2)cn1 [^11C-PBB3, (5-((1E,3E)-4-(6-[^11C]methylamino)pyridin-3-yl)buta-1,3-dien-1-yl)benzo[d]thiazol-6-ol]
- % of specific binding [1]: 50%
- NSP Binding [1]: 2849
- Specific Binding [1]: 2796
- Total Binding [1]: 5645
- % of specific binding [2]: 20%
- NSP Binding [2]: 3201
- Specific Binding [2]: 802
- Total Binding [2]: 4004
- % of specific binding [3]: 51%
- NSP Binding [3]: 3317
- Specific Binding [3]: 3433
- Total Binding [3]: 6750
- % of specific binding [4]: 17%
- NSP Binding [4]: 3919
- Specific Binding [4]: 782
- Total Binding [4]: 4701
- % of specific binding [5]: 22%
- NSP Binding [5]: 1579
- Specific Binding [5]: 439
- Total Binding [5]: 2018
- % of specific binding [6]: 45%
- NSP Binding [6]: 3353
- Specific Binding [6]: 2690
- Total Binding [6]: 6043
- % of specific binding [7]: 13%
- NSP Binding [7]: 3842
- Specific Binding [7]: 566
- Total Binding [7]: 4409
- % of specific binding [8]: 41%
- NSP Binding [8]: 3425
- Specific Binding [8]: 2352
- Total Binding [8]: 5777
- % of specific binding [9]: 4%
- NSP Binding [9]: 4009
- Specific Binding [9]: 178
- Total Binding [9]: 4187
- % of specific binding [10]: 28%
- NSP Binding [10]: 1569
- Specific Binding [10]: 596
- Total Binding [10]: 2164
- % of specific binding [11]: 47%
- NSP Binding [11]: 3052
- Specific Binding [11]: 2700
- Total Binding [11]: 5752
- % of specific binding [12]: 21%
- NSP Binding [12]: 2790
- Specific Binding [12]: 751
- Total Binding [12]: 3541
- % of specific binding [13]: 19%
- NSP Binding [13]: 1517
- Specific Binding [13]: 367
- Total Binding [13]: 1884
- % of specific binding [14]: 51%
- NSP Binding [14]: 3051
- Specific Binding [14]: 3187
- Total Binding [14]: 6238
- % of specific binding [15]: 15%
- NSP Binding [15]: 3252
- Specific Binding [15]: 595
- Total Binding [15]: 3847
- % of specific binding [16]: 17%
- NSP Binding [16]: 1619
- Specific Binding [16]: 341
- Total Binding [16]: 1960
- % of specific binding [17]: 48%
- NSP Binding [17]: 3100
- Specific Binding [17]: 2827
- Total Binding [17]: 5927
- % of specific binding [18]: 21%
- NSP Binding [18]: 2838
- Specific Binding [18]: 748
- Total Binding [18]: 3585
- % of specific binding [19]: 20%
- NSP Binding [19]: 1580
- Specific Binding [19]: 400
- Total Binding [19]: 1979
- % of specific binding [20]: 59%
- NSP Binding [20]: 2988
- Specific Binding [20]: 4222
- Total Binding [20]: 7210
- % of specific binding [21]: 12%
- NSP Binding [21]: 3425
- Specific Binding [21]: 448
- Total Binding [21]: 3874
- % of specific binding [22]: 36%
- NSP Binding [22]: 1506
- Specific Binding [22]: 831
- Total Binding [22]: 2336
- % of specific binding [23]: 48%
- NSP Binding [23]: 2989
- Specific Binding [23]: 2786
- Total Binding [23]: 5775
- % of specific binding [24]: 13%
- NSP Binding [24]: 2721
- Specific Binding [24]: 422
- Total Binding [24]: 3143
- % of specific binding [25]: 23%
- NSP Binding [25]: 1577
- Specific Binding [25]: 481
- Total Binding [25]: 2058
- % of specific binding [26]: 56%
- NSP Binding [26]: 3132
- Specific Binding [26]: 4039
- Total Binding [26]: 7171
- % of specific binding [27]: 21%
- NSP Binding [27]: 3247
- Specific Binding [27]: 879
- Total Binding [27]: 4125
- % of specific binding [28]: 27%
- NSP Binding [28]: 1832
- Specific Binding [28]: 678
- Total Binding [28]: 2511
- % of specific binding [29]: 46%
- NSP Binding [29]: 3401
- Specific Binding [29]: 2848
- Total Binding [29]: 6249
- % of specific binding [30]: 8%
- NSP Binding [30]: 3261
- Specific Binding [30]: 294
- Total Binding [30]: 3555
- % of specific binding [31]: 18%
- NSP Binding [31]: 1815
- Specific Binding [31]: 405
- Total Binding [31]: 2220
- Total Binding (AD3, Temporal cortex, 0.4nM): 6400 pmol/mm^3
- % of specific binding [32]: 50%
- NSP Binding [32]: 3203
- Specific Binding [32]: 3207
- Total Binding [32]: 6409
- % of specific binding [33]: 11%
- NSP Binding [33]: 3217
- Specific Binding [33]: 396
- Total Binding [33]: 3612
- % of specific binding [34]: 18%
- NSP Binding [34]: 1818
- Specific Binding [34]: 397
- Total Binding [34]: 2215
